The results in this text go back to patent US11084829B2, “Ubiquitin-specific-processing protease 7 (USP7) modulators and uses thereof” (RAPT THERAPEUTICS, INC., priority 2018, dated 2021).

The assay concerns the target USP7 (Homo sapiens, UniProt Q93009). Kind of assay: USP7 inhibitory potency (IC50). Format: biochemical. The method, then:
Activity for compounds described herein is provided in Table 2, wherein potency levels are provided as follows: (Potency: USP7 IC50: A<0.01 μM; B=0.01-0.1 μM; C=>0.1 μM.

The structures appear in SMILES notation.

Chain of USP7 (Q93009 whole entry): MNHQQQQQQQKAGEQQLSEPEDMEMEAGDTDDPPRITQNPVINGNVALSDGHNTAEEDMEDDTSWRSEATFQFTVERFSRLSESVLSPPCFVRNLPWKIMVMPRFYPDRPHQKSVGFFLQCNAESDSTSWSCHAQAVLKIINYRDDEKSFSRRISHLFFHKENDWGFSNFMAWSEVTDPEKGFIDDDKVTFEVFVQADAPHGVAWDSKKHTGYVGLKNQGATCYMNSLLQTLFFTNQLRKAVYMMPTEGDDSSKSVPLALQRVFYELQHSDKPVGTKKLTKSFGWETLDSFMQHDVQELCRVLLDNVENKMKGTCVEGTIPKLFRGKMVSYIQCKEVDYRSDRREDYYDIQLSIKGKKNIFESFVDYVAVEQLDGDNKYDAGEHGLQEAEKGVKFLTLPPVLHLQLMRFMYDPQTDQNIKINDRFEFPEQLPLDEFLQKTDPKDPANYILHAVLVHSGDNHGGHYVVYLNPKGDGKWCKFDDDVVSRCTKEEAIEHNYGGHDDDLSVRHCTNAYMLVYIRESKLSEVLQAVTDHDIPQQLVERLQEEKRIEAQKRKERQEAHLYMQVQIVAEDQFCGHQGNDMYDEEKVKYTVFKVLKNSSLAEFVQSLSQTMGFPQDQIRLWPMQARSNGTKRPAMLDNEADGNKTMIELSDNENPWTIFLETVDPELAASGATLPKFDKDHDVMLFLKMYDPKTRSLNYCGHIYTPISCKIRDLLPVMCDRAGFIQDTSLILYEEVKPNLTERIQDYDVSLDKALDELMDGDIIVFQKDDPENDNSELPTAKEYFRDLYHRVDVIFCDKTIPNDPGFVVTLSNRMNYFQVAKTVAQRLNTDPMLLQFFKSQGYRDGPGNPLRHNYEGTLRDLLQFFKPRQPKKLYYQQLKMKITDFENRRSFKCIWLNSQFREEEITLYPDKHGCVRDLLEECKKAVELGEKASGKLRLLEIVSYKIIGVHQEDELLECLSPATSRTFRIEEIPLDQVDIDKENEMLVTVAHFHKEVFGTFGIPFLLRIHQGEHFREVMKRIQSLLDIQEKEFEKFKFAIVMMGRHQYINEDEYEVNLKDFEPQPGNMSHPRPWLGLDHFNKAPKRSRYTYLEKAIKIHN

The compound `Cc1cc(Cl)cc(-c2ncnc3cc(CN4C(=O)C5C(C4=O)C5(C)C)sc23)c1CC1CNCCO1` (stereo not drawn) [Example 151, 3-((4-(5-chloro-3-methyl-2-(morpholin-2-ylmethyl)phenyl)thieno[3,2-d]pyrimidin-6-yl)methyl)-6,6-dimethyl-3-azabicyclo[3.1.0]hexane-2,4-dione] came in with an IC50 of less than 10 nM.
On to `Cc1cc(Cl)cc(-c2ccnc3cc(CN4C(=O)C5CC5C4=O)sc23)c1C[C@@H]1CNCC(C)(C)O1` (stereo partly drawn) [Example 129, 3-((7-(5-chloro-2-(((R)-6,6-dimethylmorpholin-2-yl)methyl)-3-methylphenyl)thieno[3,2-b]pyridin-2-yl)methyl)-3-azabicyclo[3.1.0]hexane-2,4-dione], for which the IC50 is less than 10 nM.
In the case of `Cc1cc(Cl)cc(-c2ccnc3cc(CN4C(=O)CCCC4=O)sc23)c1CN1C[C@@H](C)NC[C@@H]1C` [Example 45, 1-((7-(5-chloro-2-(((2S,5R)-2,5-dimethylpiperazin-1-yl)methyl)-3-methylphenyl)thieno[3,2-b]pyridin-2-yl)methyl)piperidine-2,6-dione], the half-inhibitory concentration (IC50) was less than 10 nM.
On to `Cc1cc(Cl)cc(-c2ncnc3cc(Cn4c(=O)ccn(C)c4=O)sc23)c1CC1CNCC(C)(C)O1` (stereo not drawn) [Example 192, 3-((4-(5-chloro-2-((6,6-dimethylmorpholin-2-yl)methyl)-3-methylphenyl)thieno[3,2-d]pyrimidin-6-yl)methyl)-1-methylpyrimidine-2,4(1H,3H)-dione], for which the half-maximal inhibitory concentration (IC50) is less than 10 nM.
For `Cc1cc(Cl)cc(-c2ncnc3cc(CN4C(=O)CCC4=O)sc23)c1CN1[C@@H](C)CNC[C@@H]1C` [Example 77, 1-((4-(5-chloro-2-(((2S,6S)-2,6-dimethylpiperazin-1-yl)methyl)-3-methylphenyl)thieno[3,2-d]pyrimidin-6-yl)methyl)pyrrolidine-2,5-dione], the IC50 is less than 10 nM.
Take `Cc1cc(Cl)cc(-c2ncnc3cc(CN4C(=O)C5C(C4=O)C5(C)C)sc23)c1CN1CCNC[C@@H]1C` (stereo partly drawn) [Example 50, 3-((4-(5-chloro-3-methyl-2-(((S)-2-methylpiperazin-1-yl)methyl)phenyl)thieno[3,2-d]pyrimidin-6-yl)methyl)-6,6-dimethyl-3-azabicyclo[3.1.0]hexane-2,4-dione]: the half-inhibitory concentration (IC50) was less than 10 nM.
For the compound `Cc1cc(Cl)cc(-c2ncnc3cc(CN4C(=O)CCN(CCCC(=O)O)C4=O)sc23)c1C[C@@H]1CNCCO1` [Example 265, (R)-4-(3-((4-(5-chloro-3-methyl-2-(morpholin-2-ylmethyl)phenyl)thieno[3,2-d]pyrimidin-6-yl)methyl)-2,4-dioxotetrahydropyrimidin-1(2H)-yl)butanoic acid], the 50% inhibitory concentration (IC50) is 10 to 100 nM.
In the case of `Cc1cc(Cl)cc(-c2ccnc3cc(CN4C(=O)CCC4=O)sc23)c1CN1C[C@@H](C)N[C@H](C)C1` [Example 26, 1-((7-(5-chloro-2-(((3R,5R)-3,5-dimethylpiperazin-1-yl)methyl)-3-methylphenyl)thieno[3,2-b]pyridin-2-yl)methyl)pyrrolidine-2,5-dione] it was less than 10 nM; in that of `CCC1NC(=O)N(Cc2cc3ncnc(-c4cc(Cl)cc(C)c4C[C@@H]4CNCCO4)c3s2)C1=O` (stereo partly drawn) [Example 245, 3-((4-(5-chloro-3-methyl-2-(((R)-morpholin-2-yl)methyl)phenyl)thieno[3,2-d]pyrimidin-6-yl)methyl)-5-ethylimidazolidine-2,4-dione], less than 10 nM; in that of `Cc1cc(Cl)cc(-c2ncnc3cc(CN4C(=O)C5CC5C4=O)sc23)c1CC1CNCCO1` (stereo not drawn) [Example 152, 3-((4-(5-chloro-3-methyl-2-(morpholin-2-ylmethyl)phenyl)thieno[3,2-d]pyrimidin-6-yl)methyl)-3-azabicyclo[3.1.0]hexane-2,4-dione], less than 10 nM.
In turn, `Cc1cc(Cl)cc(-c2ncnc3cc(CN4C(=O)OC[C@@H]4CF)sc23)c1C[C@@H]1CNCC(C)(C)O1` [Example 263, (R)-3-((4-(5-chloro-2-(((R)-6,6-dimethylmorpholin-2-yl)methyl)-3-methylphenyl)thieno[3,2-d]pyrimidin-6-yl)methyl)-4-(fluoromethyl)oxazolidin-2-one] returned an IC50 of less than 10 nM.
Turning to `Cc1cc(C#N)cc(-c2ncnc3cc(CN4C(=O)C5CC5C4=O)sc23)c1CN1CCNC[C@@H]1C` (stereo partly drawn) [Example 60, 3-(6-((2,4-dioxo-3-azabicyclo[3.1.0]hexan-3-yl)methyl)thieno[3,2-d]pyrimidin-4-yl)-5-methyl-4-(((S)-2-methylpiperazin-1-yl)methyl)benzonitrile], the half-inhibitory concentration (IC50) lay in the range of 10 to 100 nM.
`Cc1cc(Cl)cc(-c2ccnc3cc([C@H](C)N4C(=O)C5CC5C4=O)sc23)c1C[C@@H]1CNCC(C)(C)O1` (stereo partly drawn) [Example 137, 3-((S)-1-(7-(5-chloro-2-(((R)-6,6-dimethylmorpholin-2-yl)methyl)-3-methylphenyl)thieno[3,2-b]pyridin-2-yl)ethyl)-3-azabicyclo[3.1.0]hexane-2,4-dione] had an IC50 of less than 10 nM.
In the case of `Cc1cc(C(F)(F)F)cc(-c2ncnc3cc(CN4C(=O)C5CC5C4=O)sc23)c1CN1CCNC[C@@H]1C` (stereo partly drawn) [Example 58, 3-((4-(3-methyl-2-(((S)-2-methylpiperazin-1-yl)methyl)-5-(trifluoromethyl)phenyl)thieno[3,2-d]pyrimidin-6-yl)methyl)-3-azabicyclo[3.1.0]hexane-2,4-dione] it was 10 to 100 nM; in that of `Cc1cc(Cl)cc(-c2ncnc3cc(CN4C(=O)CN(C)C4=O)sc23)c1CC1CNCCO1` (stereo not drawn) [Example 177, 3-((4-(5-chloro-3-methyl-2-(morpholin-2-ylmethyl)phenyl)thieno[3,2-d]pyrimidin-6-yl)methyl)-1-methylimidazolidine-2,4-dione], less than 10 nM; in that of `Cc1cc(Cl)cc(-c2ncnc3cc(CN4C(=O)CCN(C)C4=O)sc23)c1CC1CNCC(C)(C)O1` (stereo not drawn) [Example 193, 3-((4-(5-chloro-2-((6,6-dimethylmorpholin-2-yl)methyl)-3-methylphenyl)thieno[3,2-d]pyrimidin-6-yl)methyl)-1-methyldihydropyrimidine-2,4(1H,3H)-dione], less than 10 nM.
As to `Cc1cc(Cl)cc(-c2ncnc3cc(CN4C(=O)CN(CC(F)(F)F)C4=O)sc23)c1CN1[C@@H](C)CNC[C@@H]1C` [Example 272, 3-((4-(5-chloro-2-(((2S,6S)-2,6-dimethylpiperazin-1-yl)methyl)-3-methylphenyl)thieno[3,2-d]pyrimidin-6-yl)methyl)-1-(2,2,2-trifluoroethyl)imidazolidine-2,4-dione], the half-inhibitory concentration (IC50) is less than 10 nM.
Turning to `Cc1cc(Cl)cc(-c2ncnc3cc(CN4C(=O)NC(C)C4=O)sc23)c1C[C@@H]1CNCCO1` (stereo partly drawn) [Example 244, 3-((4-(5-chloro-3-methyl-2-(((R)-morpholin-2-yl)methyl)phenyl)thieno[3,2-d]pyrimidin-6-yl)methyl)-5-methylimidazolidine-2,4-dione], the IC50 is less than 10 nM.
Compound `Cc1cc(Cl)cc(-c2ncnc3cc(CN4C(=O)CN(C)C4=O)sc23)c1C[C@@H]1CNCC(C)(C)O1` [Example 275, (R)-3-((4-(5-chloro-2-((6,6-dimethylmorpholin-2-yl)methyl)-3-methylphenyl)thieno[3,2-d]pyrimidin-6-yl)methyl)-1-methylimidazolidine-2,4-dione] gave an IC50 of less than 10 nM.
Compound `Cn1ccc(=O)n(Cc2cc3nccc(-c4cc(Cl)cc(Cl)c4CC4CNCCO4)c3s2)c1=O` (stereo not drawn) [Example 142, 3-((7-(3,5-dichloro-2-(morpholin-2-ylmethyl)phenyl)thieno[3,2-b]pyridin-2-yl)methyl)-1-methylpyrimidine-2,4(1H,3H)-dione] came in with a half-maximal inhibitory concentration (IC50) of less than 10 nM.
For the compound `CC[C@H]1CNCCN1Cc1c(C)cc(Cl)cc1-c1ncnc2cc(CN3C(=O)C4C(C3=O)C4(C)C)sc12` (stereo partly drawn) [Example 52, 3-((4-(5-chloro-2-(((S)-2-ethylpiperazin-1-yl)methyl)-3-methylphenyl)thieno[3,2-d]pyrimidin-6-yl)methyl)-6,6-dimethyl-3-azabicyclo[3.1.0]hexane-2,4-dione], the concentration for half-maximal inhibition (IC50) is 10 to 100 nM.
For the compound `Cc1cc(Cl)cc(-c2ncnc3cc(CN4C(=O)CCNC4=O)sc23)c1C[C@@H]1CNCCO1` [Example 247, (R)-3-((4-(5-chloro-3-methyl-2-(morpholin-2-ylmethyl)phenyl)thieno[3,2-d]pyrimidin-6-yl)methyl)dihydropyrimidine-2,4(1H,3H)-dione], the half-inhibitory concentration (IC50) is less than 10 nM.
`C[C@H]1CNC[C@H](C)N1Cc1c(Cl)cc(Cl)cc1-c1ncnc2cc(CN3C(=O)CCC3=O)sc12` [Example 92, 1-((4-(3,5-dichloro-2-(((2S,6S)-2,6-dimethylpiperazin-1-yl)methyl)phenyl)thieno[3,2-d]pyrimidin-6-yl)methyl)pyrrolidine-2,5-dione]: the IC50 was less than 10 nM.
`C[C@@H]1CN(Cc2c(Cl)cc(Cl)cc2-c2ncnc3cc(CN4C(=O)C5CC5C4=O)sc23)[C@@H](C)CN1` (stereo partly drawn) [Example 75, 3-((4-(3,5-dichloro-2-(((2S,5R)-2,5-dimethylpiperazin-1-yl)methyl)phenyl)thieno[3,2-d]pyrimidin-6-yl)methyl)-3-azabicyclo[3.1.0]hexane-2,4-dione] registered a concentration for half-maximal inhibition (IC50) of less than 10 nM.
As to `Cc1cc(Cl)cc(-c2ncnc3cc(CN4C(=O)CN(CCCC(=O)O)C4=O)sc23)c1C[C@@H]1CNCCO1` [Example 264, (R)-4-(3-((4-(5-chloro-3-methyl-2-(morpholin-2-ylmethyl)phenyl)thieno[3,2-d]pyrimidin-6-yl)methyl)-2,4-dioxoimidazolidin-1-yl)butanoic acid], the half-maximal inhibitory concentration (IC50) was 10 to 100 nM.
In the case of `Cc1cc(Cl)cc(-c2ccnc3cc(CN4C(=O)C5CC5C4=O)sc23)c1C[C@H]1OCCN[C@@H]1C` (stereo partly drawn) [Example 104, 3-((7-(5-chloro-3-methyl-2-(((2R,3R)-3-methylmorpholin-2-yl)methyl)phenyl)thieno[3,2-b]pyridin-2-yl)methyl)-3-azabicyclo[3.1.0]hexane-2,4-dione] it was less than 10 nM.
Consider `Cc1cc(Cl)cc(-c2ccnc3cc(CN4C(=O)C5CC5C4=O)sc23)c1C[C@@H]1CNCCO1` (stereo partly drawn) [Example 123, 3-((7-(5-chloro-3-methyl-2-(((R)-morpholin-2-yl)methyl)phenyl)thieno[3,2-b]pyridin-2-yl)methyl)-3-azabicyclo[3.1.0]hexane-2,4-dione], for which the concentration for half-maximal inhibition (IC50) was less than 10 nM.

The term IC50 denotes the concentration that gives 50% inhibition.
